Assay results taken from ChEMBL document CHEMBL1156032, “Potent small molecule mouse CD22-inhibitors: exploring the interaction of the residue at C-2 of sialic acid scaffold” (Bioorg Med Chem Lett, 2009).

What follows are compounds tested against T1, B-cell receptor CD22 (Mus musculus) (UniProt P35329) (assay: Ratio of 9-([…]-4-biphenyl)acetamido-9-deoxy- Neu5Gca2-6GalOMP IC50 to compound IC50 for mouse CD22 after 1 hr by competition ELISA).
T1 sequence (whole entry): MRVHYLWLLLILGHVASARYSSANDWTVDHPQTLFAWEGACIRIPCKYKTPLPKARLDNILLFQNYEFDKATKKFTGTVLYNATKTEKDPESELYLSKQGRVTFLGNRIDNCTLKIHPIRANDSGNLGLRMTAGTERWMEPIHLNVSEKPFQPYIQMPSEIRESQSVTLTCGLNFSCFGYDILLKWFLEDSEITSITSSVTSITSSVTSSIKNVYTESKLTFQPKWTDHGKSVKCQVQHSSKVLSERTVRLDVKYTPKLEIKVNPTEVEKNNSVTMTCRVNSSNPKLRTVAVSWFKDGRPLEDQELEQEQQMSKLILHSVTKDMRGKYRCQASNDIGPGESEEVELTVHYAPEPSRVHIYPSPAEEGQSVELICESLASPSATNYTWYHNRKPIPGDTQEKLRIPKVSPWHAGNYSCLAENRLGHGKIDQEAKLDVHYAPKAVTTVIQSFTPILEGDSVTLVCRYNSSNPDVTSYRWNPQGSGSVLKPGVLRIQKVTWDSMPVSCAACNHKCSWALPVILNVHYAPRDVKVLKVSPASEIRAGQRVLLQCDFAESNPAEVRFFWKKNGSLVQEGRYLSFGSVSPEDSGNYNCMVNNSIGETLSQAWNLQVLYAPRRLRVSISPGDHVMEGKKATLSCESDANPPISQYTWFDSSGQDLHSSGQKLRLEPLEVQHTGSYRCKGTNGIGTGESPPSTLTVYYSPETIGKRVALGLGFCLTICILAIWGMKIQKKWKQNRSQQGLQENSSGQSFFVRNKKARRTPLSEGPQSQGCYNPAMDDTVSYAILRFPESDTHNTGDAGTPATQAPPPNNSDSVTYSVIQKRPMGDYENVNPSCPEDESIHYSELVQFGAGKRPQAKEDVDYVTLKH

Compound	Ratio IC50
O=C(Cc1ccc(-c2ccc(O)cc2)cc1)NC[C@@H](O)[C@@H](O)[C@@H]1O[C@@](OCc2ccc(-c3ccccc3)cc2)(C(=O)O)C[C@H](O)[C@@H]1NC(=O)CO	20.2
O=C(Cc1ccc(-c2ccc(O)cc2)cc1)NC[C@@H](O)[C@@H](O)[C@@H]1O[C@@](OCc2ccccc2)(C(=O)O)C[C@H](O)[C@@H]1NC(=O)CO	38.4
COc1ccc(O[C@@H]2O[C@H](CO[C@]3(C(=O)O)C[C@H](O)[C@H](NC(=O)CO)[C@H]([C@H](O)[C@H](O)CNC(=O)Cc4ccc(-c5ccc(O)cc5)cc4)O3)[C@H](O)[C@H](O)[C@H]2O)cc1	1

Each compound was assayed against T2, B-cell receptor CD22 (Mus musculus, UniProt P35329) (assay: Binding affinity to mouse CD22 after 1 hr by competition ELISA).
T2 sequence (P35329 whole entry): T1 sequence (whole entry)

Compound	IC50 [µM]
O=C(Cc1ccc(-c2ccc(O)cc2)cc1)NC[C@@H](O)[C@@H](O)[C@@H]1O[C@@](OCc2ccc(-c3ccccc3)cc2)(C(=O)O)C[C@H](O)[C@@H]1NC(=O)CO	0.19
O=C(Cc1ccc(-c2ccc(O)cc2)cc1)NC[C@@H](O)[C@@H](O)[C@@H]1O[C@@](OCc2ccccc2)(C(=O)O)C[C@H](O)[C@@H]1NC(=O)CO	0.1
C[Si](C)(C)CCO[C@@H]1O[C@H](CO[C@]2(C(=O)O)C[C@H](O)[C@H](NC(=O)CO)[C@H]([C@H](O)[C@H](O)CO)O2)[C@H](O)[C@H](O)[C@H]1O	545
COc1ccc(O[C@@H]2O[C@H](CO[C@]3(C(=O)O)C[C@H](O)[C@H](NC(=O)CO)[C@H]([C@H](O)[C@H](O)CO)O3)[C@H](O)[C@H](O)[C@H]2O)cc1	305
CC(=O)N[C@@H]1[C@H]([C@H](O)[C@H](O)CO)O[C@@](OC[C@H]2O[C@@H](OCC[Si](C)(C)C)[C@H](O)[C@@H](O)[C@H]2O)(C(=O)O)C[C@@H]1O	> 1000
COc1ccc(O[C@@H]2O[C@H](CO[C@]3(C(=O)O)C[C@H](O)[C@H](NC(=O)CO)[C@H]([C@H](O)[C@H](O)CN)O3)[C@H](O)[C@H](O)[C@H]2O)cc1	82.9
